Data published in US20260364089A1, “PYRIDOPYRIMIDINE KRAS INHIBITORS” (Treeline Biosciences, Inc., priority 2022, published 2026).
Where two headings read alike, the source gives them in different places.

Molecular target: T1, KRas G12V (Homo sapiens, UniProt P01116, G12V)
T1 construct: Biotinylated KRas G12V (aa 1-169) loaded with GDP nucleotide; biotin (biotinylated)
Test: SOS1-Catalyzed Nucleotide Exchange Assay, KRas G12V (Method 2)
Type: biochemical
Conditions: 5 nM KRas G12V (aa 1-169, GDP-loaded), 50 nM SOS1
Protocol: KRas G12V [Method 2]: Compounds were pre-dispensed via Echo liquid handling (acoustic, touch-free) to generate assay ready plates (ARP). More precisely, a 10-point concentration response curve for each compound was prepared with appropriate top concentration (1 μM, 10 μM, 100 μM). Biotinylated KRas G12V (aa 1-169) loaded with GDP nucleotide and Streptavidin-Europium (SA-EU, Columbia Biosciences) were preincubated in assay buffer (20 mM HEPES pH 7.4, 150 mM NaCl, 5 mM MgCl2, 1 mM DTT, 0.01% Brij-35, 0.3 mg/mL BSA) on ice for 30 min. Separately SOS1 (aa 546-1049) and EDA-GTP-DY647P1 (Jena Bioscience) were preincubated in assay buffer on ice for 30 min. After 30 minutes of incubation for the assay components, 5 μL buffer and 5 μL of KRas G12V-SA-Eu were added to each well of the ARP. After a further 30 min, 5 μL of SOS1-EDA-GTP-D467P1 was added to start the nucleotide exchange reaction. Final concentration in the assay were 5 nM KRas G12V, 50 nM SOS1 (aa 564-1049). The reaction was allowed to proceed for 60-90 minutes after which the plate was read on a plate reader. After normalization of the raw data, the data was fit to a four-parameter logistic curve.

[1] = Method 2, B, read-out: KRas G12V IC50 (nM) (Method 2, B)
[2] = Method 2, A, read-out: KRas G12V IC50 (nM) (Method 2, A)

T1 sequence (P01116 1-169 G12V): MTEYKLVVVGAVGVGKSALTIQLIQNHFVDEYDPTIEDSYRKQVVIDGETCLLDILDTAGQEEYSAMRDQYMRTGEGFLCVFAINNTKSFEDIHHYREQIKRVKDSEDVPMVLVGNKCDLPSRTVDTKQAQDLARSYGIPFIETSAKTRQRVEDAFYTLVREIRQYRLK

SMILES | IC50 [1] [nM] | IC50 [2] [nM]
Nc1cc2c3c(c(F)ccc3c1)CCCC(=O)NCC1COCCN(C1)c1nc(OC[C@@]34CCCN3C[C@H](F)C4)nc3c(F)c-2ncc13 (stereo partly drawn) [Compound 192a, 3^3-amino-2^8,3^7-difluoro-2^2-(((2R,7aS)-2-fluorotetrahydro-1H-pyrrolizin-7a(5H)-yl)methoxy)-8-aza-1(4,6)-oxazepana-2(4,7)-pyrido[4,3-d]pyrimidina-3(1,8)-naphthalenacyclononaphan-7-one] | 100 to 1000 | 100 to 1000
Nc1cc2c(c(Cl)n1)CCCCC(=O)NCCC1(O)CCCN(C1)c1nc(OC[C@@]34CCCN3C[C@H](F)C4)nc3c(F)c-2ccc13 (stereo partly drawn) [Compound 187a, 1^6-amino-1^2-chloro-2^8-fluoro-2^2-(((2R,7aS)-2-fluorotetrahydro-1H-pyrrolizin-7a(5H)-yl)methoxy)-3^3-hydroxy-6-aza-2(7,4)-quinazolina-1(4,3)-pyridina-3(1,3)-piperidinacycloundecaphan-7-one] | 1000 to 10000 | –
Nc1cc2c(cc1F)CCCCC(=O)NCCC1CCCN(C1)c1nc(OC[C@@]34CCCN3C[C@H](F)C4)nc3c(F)c-2ncc13 (stereo partly drawn) [Compound 159a, 3^5-amino-2^8,3^4-difluoro-2^2-(((2R,7aS)-2-fluorotetrahydro-1H-pyrrolizin-7a(5H)-yl)methoxy)-9-aza-2(4,7)-pyrido[4,3-d]pyrimidina-1(1,3)-piperidina-3(1,2)-benzenacycloundecaphan-8-one] | – | 1000 to 10000
Nc1cc(Cl)c2c(c1)-c1ncc3c(nc(OC[C@@]45CCCN4C[C@H](F)C5)nc3c1F)N1CCCC(CCNC(=O)CCCC2)C1 (stereo partly drawn) [Compound 154a, 3^5-amino-3^3-chloro-2^8-fluoro-2^2-(((2R,7aS)-2-fluorotetrahydro-1H-pyrrolizin-7a(5H)-yl)methoxy)-9-aza-2(4,7)-pyrido[4,3-d]pyrimidina-1(1,3)-piperidina-3(1,2)-benzenacycloundecaphan-8-one] | – | ≤ 100
O=C1CCCc2c(F)ccc3cc(O)cc(c23)-c2ccc3c(nc(OC[C@@]45CCCN4C[C@H](F)C5)nc3c2F)N2CCOCC(CCN1)C2 (stereo partly drawn) [Compound 195a, 2^8,3^7-difluoro-2^2-(((2R,7aS)-2-fluorotetrahydro-1H-pyrrolizin-7a(5H)-yl)methoxy)-3^3-hydroxy-8-aza-1(4,6)-oxazepana-2(4,7)-quinazolina-3(1,8)-naphthalenacyclodecaphan-7-one] | ≤ 100 | ≤ 100
O=C1CCCc2c(F)ccc3cc(O)cc(c23)-c2ncc3c(nc(OC[C@@]45CCCN4C[C@H](F)C5)nc3c2F)N2CCCC(O)(CCN1)C2 (stereo partly drawn) [Compound 136a, 2^8,3^7-difluoro-2^2-(((2R,7aS)-2-fluorotetrahydro-1H-pyrrolizin-7a(5H)-yl)methoxy)-1^3,3^3-dihydroxy-8-aza-2(4,7)-pyrido[4,3-d]pyrimidina-1(1,3)-piperidina-3(1,8)-naphthalenacyclodecaphan-7-one] | ≤ 100 | –
Nc1cc2c(c(C(F)(F)F)c1)CCCCC(=O)NCCC1CCCN(C1)c1nc(OC[C@@]34CCCN3C[C@H](F)C4)nc3c(F)c-2ncc13 (stereo partly drawn) [Compound 181a, 3^5-amino-2^8-fluoro-2^2-(((2R,7aS)-2-fluorotetrahydro-1H-pyrrolizin-7a(5H)-yl)methoxy)-3^3-(trifluoromethyl)-9-aza-2(4,7)-pyrido[4,3-d]pyrimidina-1(1,3)-piperidina-3(1,2)-benzenacycloundecaphan-8-one] | 1000 to 10000 | –
Nc1cc(Cl)c2c(c1)-c1ncc3c(nc(OC[C@@]45CCCN4C[C@H](F)C5)nc3c1F)N1C[C@H](F)C[C@H](C1)NC(=O)CCCC2 [Compound 201a, (1^3R,1^5R)-3^5-amino-3^3-chloro-1^5,2^8-difluoro-2^2-(((2R,7aS)-2-fluorotetrahydro-1H-pyrrolizin-7a(5H)-yl)methoxy)-9-aza-2(4,7)-pyrido[4,3-d]pyrimidina-1(1,3)-piperidina-3(1,2)-benzenacyclononaphan-8-one] | 100 to 1000 | –

Continued, values first:

IC50 [1] [nM] | IC50 [2] [nM] | SMILES
10000 to 30000 | – | Nc1cc2c(cc1F)CCCCC(=O)NCCC1CCCN(C1)c1nc(OC[C@@]34CCCN3C[C@H](F)C4)nc3c(F)c-2ncc13 (single isomer, unassigned) [Compound 159c]
≤ 100 | – | CN(C)CC1(COc2nc3c4ccc(c(F)c4n2)-c2c(c(Cl)cc4[nH]ncc24)CCCCC(=O)NCCC2CCCN3C2)CC1 (single isomer, unassigned) [Compound 197a, 1^6-chloro-2^2-((1-((dimethylamino)methyl)cyclopropyl)methoxy)-2^8-fluoro-1^1H-6-aza-2(7,4)-quinazolina-1(4,5)-indazola-3(1,3)-piperidinacycloundecaphan-7-one]
≤ 100 | – | O=C1CCCCc2c(Cl)cc3[nH]ncc3c2-c2ncc3c(nc(OC[C@@]45CCCN4C[C@H](F)C5)nc3c2F)N2CCOCC(CN1)C2 (stereo partly drawn) [Compound 203a, 3^6-chloro-2^8-fluoro-2^2-(((2R,7aS)-2-fluorotetrahydro-1H-pyrrolizin-7a(5H)-yl)methoxy)-3^1H-9-aza-1(4,6)-oxazepana-2(4,7)-pyrido[4,3-d]pyrimidina-3(4,5)-indazolacyclodecaphan-8-one]
– | ≤ 100 | Nc1cc(Cl)c2c(c1)-c1ncc3c(nc(OC[C@@]45CCCN4C[C@H](F)C5)nc3c1F)N1CCCC(O)(CCNC(=O)CCCC2)C1 (stereo partly drawn) [Compound 156a, 3^5-amino-3^3-chloro-2^8-fluoro-2^2-(((2R,7aS)-2-fluorotetrahydro-1H-pyrrolizin-7a(5H)-yl)methoxy)-13-hydroxy-9-aza-2(4,7)-pyrido[4,3-d]pyrimidina-1(1,3)-piperidina-3(1,2)-benzenacycloundecaphan-8-one]
100 to 1000 | – | Nc1cc2c(c(Cl)n1)CCCCC(=O)NCCC1CCCN(C1)c1nc(OC[C@@]34CCCN3C[C@H](F)C4)nc3c(F)c-2ncc13 (stereo partly drawn) [Compound 186a, 1^6-amino-1^2-chloro-2^8-fluoro-2^2-(((2R,7aS)-2-fluorotetrahydro-1H-pyrrolizin-7a(5H)-yl)methoxy)-6-aza-2(7,4)-pyrido[4,3-d]pyrimidina-1(4,3)-pyridina-3(1,3)-piperidinacycloundecaphan-7-one]
100 to 1000 | 100 to 1000 | O=C1CCCc2c(F)ccc3cccc(c23)-c2ncc3c(nc(OC[C@@]45CCCN4C[C@H](F)C5)nc3c2F)N2CCOCC(CN1)C2 (stereo partly drawn) [Compound 193a, 2^8,3^7-difluoro-2^2-(((2R,7aS)-2-fluorotetrahydro-1H-pyrrolizin-7a(5H)-yl)methoxy)-8-aza-1(4,6)-oxazepana-2(4,7)-pyrido[4,3-d]pyrimidina-3(1,8)-naphthalenacyclononaphan-7-one]
≤ 100 | – | O=C1CCCc2c(F)ccc3cc(O)cc(c23)-c2ccc3c(nc(OC[C@@]45CCCN4C[C@H](F)C5)nc3c2F)N2CCCC(CCN1)C2 (stereo partly drawn) [Compound 175a, 2^8,3^7-difluoro-2^2-(((2R,7aS)-2-fluorotetrahydro-1H-pyrrolizin-7a(5H)-yl)methoxy)-3^3-hydroxy-8-aza-2(4,7)-quinazolina-1(1,3)-piperidina-3(1,8)-naphthalenacyclodecaphan-7-one]
100 to 1000 | 100 to 1000 | Nc1cc2c3c(c(F)ccc3c1)CCCC(=O)NCCC1CCCN(C1)c1nc(OC[C@@]34CCCN3C[C@H](F)C4)nc3c(F)c-2ccc13 (stereo partly drawn) [Compound 190a, 3^3-amino-2^8,3^7-difluoro-2^2-(((2R,7aS)-2-fluorotetrahydro-1H-pyrrolizin-7a(5H)-yl)methoxy)-8-aza-2(4,7)-quinazolina-1(1,3)-piperidina-3(1,8)-naphthalenacyclodecaphan-7-one]
